Residues, ends and D or L forms follow the SMILES beside them.
Key:
Rattus norvegicus [1] = assay: Antidiuretic activity in intravenous antidiuretic assay in rats under ethanol anesthesia; assay type: functional, Urine
Rattus norvegicus [2] = species on record: Rattus norvegicus; assay: Effective dose for anti-vasopressor potency to reduce the response to 2x units of agonist to equal the response to 1x units; assay type: functional
Rattus norvegicus [3] = species on record: Rattus norvegicus; assay: In vitro anti-oxytocic potency was recorded in absence of Mg2+ in rat uteri; assay type: functional; settings: read-out: pA2 (converted)
Rattus norvegicus [4] = species on record: Rattus norvegicus; assay: In vitro anti-oxytocic potency was recorded in presence of 0.5 mM Mg2+ in rat uteri; assay type: functional; settings: read-out: pA2 (converted)
Rattus norvegicus [5] = assay: Compound evaluated in vivo and negative logarithm of effective dose divided by estimated volume of distribution (67 mL/kg) determined; assay type: ADME, organism-based; settings: read-out: pA2 (converted)

Structure (SMILES)	Antidiuretic activity (Rattus norvegicus [1])	Effective dose (Rattus norvegicus [2])	Kb (Rattus norvegicus [3])	Kb (Rattus norvegicus [4])	Kb (Rattus norvegicus [5])
CCC1(CC)CC(=O)N[C@@H](Cc2ccc(O)cc2)C(=O)N[C@H](Cc2ccccc2)C(=O)N[C@@H](CCC(N)=O)C(=O)N[C@H](CC(N)=O)C(=O)N[C@@H](C(=O)N2CCC[C@H]2C(=O)N[C@H](CCCN=C(N)N)C(=O)NCC(N)=O)CSS1	0.06 U/mg	0.81 nM/kg	112 nM	200 nM	11 nM
NC(=O)CC[C@@H]1NC(=O)[C@H](Cc2ccccc2)NC(=O)[C@H](Cc2ccc(O)cc2)NC(=O)CC2(CCCCC2)SSC[C@@H](C(=O)N2CCC[C@H]2C(=O)N[C@@H](CCCN=C(N)N)C(=O)NCC(N)=O)NC(=O)[C@H](CC(N)=O)NC1=O [listing 1 of 2 here]			47.9 nM	53.7 nM	
NC(=O)CC[C@@H]1NC(=O)[C@H](Cc2ccccc2)NC(=O)[C@H](Cc2ccc(O)cc2)NC(=O)CC2(CCCCC2)SSC[C@@H](C(=O)N2CCC[C@H]2C(=O)N[C@@H](CCCN=C(N)N)C(=O)NCC(N)=O)NC(=O)[C@H](CC(N)=O)NC1=O [listing 2 of 2 here]		0.34 nM/kg			
NC(=O)CC[C@@H]1NC(=O)[C@H](Cc2ccccc2)NC(=O)[C@H](Cc2ccc(O)cc2)NC(=O)CC2(CCCCC2)SSC[C@@H](C(=O)N2CCC[C@H]2C(=O)N[C@H](CCCN=C(N)N)C(=O)NCC(N)=O)NC(=O)[C@H](CC(N)=O)NC1=O [listing 1 of 2 here]			107 nM	257 nM	3.02 nM
NC(=O)CC[C@@H]1NC(=O)[C@H](Cc2ccccc2)NC(=O)[C@H](Cc2ccc(O)cc2)NC(=O)CC2(CCCCC2)SSC[C@@H](C(=O)N2CCC[C@H]2C(=O)N[C@H](CCCN=C(N)N)C(=O)NCC(N)=O)NC(=O)[C@H](CC(N)=O)NC1=O [listing 2 of 2 here]	0.31 U/mg	0.2 nM/kg			
CC(C)[C@@H]1NC(=O)[C@H](Cc2ccccc2)NC(=O)[C@H](Cc2ccc(O)cc2)NC(=O)CC(C)(C)SSC[C@@H](C(=O)N2CCC[C@H]2C(=O)N[C@H](CCCN=C(N)N)C(=O)NCC(N)=O)NC(=O)[C@H](CC(N)=O)NC1=O [listing 1 of 2 here]				75.9 nM	
CC(C)[C@@H]1NC(=O)[C@H](Cc2ccccc2)NC(=O)[C@H](Cc2ccc(O)cc2)NC(=O)CC(C)(C)SSC[C@@H](C(=O)N2CCC[C@H]2C(=O)N[C@H](CCCN=C(N)N)C(=O)NCC(N)=O)NC(=O)[C@H](CC(N)=O)NC1=O [listing 2 of 2 here]	123 U/mg	1.1 nM/kg			
CCC1(CC)CC(=O)N[C@@H](Cc2ccc(O)cc2)C(=O)N[C@H](Cc2ccccc2)C(=O)N[C@@H](C(C)C)C(=O)N[C@H](CC(N)=O)C(=O)N[C@@H](C(=O)N2CCC[C@H]2C(=O)N[C@@H](CCCN=C(N)N)C(=O)NCC(N)=O)CSS1	1.5 U/mg	0.38 nM/kg	47.9 nM	21.9 nM	5.13 nM
CC1(C)CC(=O)N[C@@H](Cc2ccc(O)cc2)C(=O)N[C@H](Cc2ccccc2)C(=O)N[C@@H](CCC(N)=O)C(=O)N[C@H](CC(N)=O)C(=O)N[C@@H](C(=O)N2CCC[C@H]2C(=O)N[C@H](CCCN=C(N)N)C(=O)NCC(N)=O)CSS1	5.8 U/mg	2.5 nM/kg	13.5 nM	195 nM	35.5 nM
CCC1(CC)CC(=O)N[C@@H](Cc2ccc(O)cc2)C(=O)N[C@H](Cc2ccccc2)C(=O)N[C@@H](C(C)C)C(=O)N[C@H](CC(N)=O)C(=O)N[C@@H](C(=O)N2CCC[C@H]2C(=O)N[C@H](CCCN=C(N)N)C(=O)NCC(N)=O)CSS1	0.71 U/mg	0.35 nM/kg	51.3 nM	61.7 nM	6.61 nM
CC1(C)CC(=O)N[C@@H](Cc2ccc(O)cc2)C(=O)N[C@@H](Cc2ccccc2)C(=O)N[C@@H](CCC(N)=O)C(=O)N[C@@H](CC(N)=O)C(=O)N[C@H](C(=O)N2CCC[C@H]2C(=O)N[C@@H](CCCN=C(N)N)C(=O)NCC(N)=O)CSS1 [listing 1 of 2 here]				1170 nM	
CC1(C)CC(=O)N[C@@H](Cc2ccc(O)cc2)C(=O)N[C@@H](Cc2ccccc2)C(=O)N[C@@H](CCC(N)=O)C(=O)N[C@@H](CC(N)=O)C(=O)N[C@H](C(=O)N2CCC[C@H]2C(=O)N[C@@H](CCCN=C(N)N)C(=O)NCC(N)=O)CSS1 [listing 2 of 2 here]		3.2 nM/kg			
CCC1(CC)CC(=O)N[C@@H](Cc2ccc(O)cc2)C(=O)N[C@@H](Cc2ccccc2)C(=O)N[C@@H](CCC(N)=O)C(=O)N[C@@H](CC(N)=O)C(=O)N[C@H](C(=O)N2CCC[C@H]2C(=O)N[C@@H](CCCN=C(N)N)C(=O)NCC(N)=O)CSS1 [listing 1 of 2 here]			50.1 nM	69.2 nM	4.37 nM
CCC1(CC)CC(=O)N[C@@H](Cc2ccc(O)cc2)C(=O)N[C@@H](Cc2ccccc2)C(=O)N[C@@H](CCC(N)=O)C(=O)N[C@@H](CC(N)=O)C(=O)N[C@H](C(=O)N2CCC[C@H]2C(=O)N[C@@H](CCCN=C(N)N)C(=O)NCC(N)=O)CSS1 [listing 2 of 2 here]	0.38 U/mg	0.32 nM/kg			
CC(C)[C@@H]1NC(=O)[C@@H](Cc2ccccc2)NC(=O)[C@H](Cc2ccc(O)cc2)NC(=O)CC(C)(C)SSC[C@H](C(=O)N2CCC[C@H]2C(=O)N[C@@H](CCCN=C(N)N)C(=O)NCC(N)=O)NC(=O)[C@@H](CC(N)=O)NC1=O	312 U/mg	0.84 nM/kg	8.13 nM	19.1 nM	12 nM
CC(C)[C@@H]1NC(=O)[C@H](Cc2ccccc2)NC(=O)[C@H](Cc2ccc(O)cc2)NC(=O)CC2(CCCCC2)SSC[C@@H](C(=O)N2CCC[C@H]2C(=O)N[C@@H](CCCN=C(N)N)C(=O)NCC(N)=O)NC(=O)[C@H](CC(N)=O)NC1=O (HELM PEPTIDE1{Y.F.V.N.C.P.R.G.[am]}|CHEM1{[O=C(CC1(S[*:2])CCCCC1)[*:1]]}$PEPTIDE1,CHEM1,1:R1-1:R1|PEPTIDE1,CHEM1,5:R3-1:R2$$$V2.0)	0.32 U/mg	0.76 nM/kg			
CC(C)[C@@H]1NC(=O)[C@H](Cc2ccccc2)NC(=O)[C@H](Cc2ccc(O)cc2)NC(=O)CC2(CCCCC2)SSC[C@@H](C(=O)N2CCC[C@H]2C(=O)N[C@H](CCCN=C(N)N)C(=O)NCC(N)=O)NC(=O)[C@H](CC(N)=O)NC1=O (HELM PEPTIDE1{Y.F.V.N.C.P.[dR].G.[am]}|CHEM1{[O=C(CC1(S[*:2])CCCCC1)[*:1]]}$PEPTIDE1,CHEM1,1:R1-1:R1|PEPTIDE1,CHEM1,5:R3-1:R2$$$V2.0) [listing 1 of 2 here]			234 nM	589 nM	
CC(C)[C@@H]1NC(=O)[C@H](Cc2ccccc2)NC(=O)[C@H](Cc2ccc(O)cc2)NC(=O)CC2(CCCCC2)SSC[C@@H](C(=O)N2CCC[C@H]2C(=O)N[C@H](CCCN=C(N)N)C(=O)NCC(N)=O)NC(=O)[C@H](CC(N)=O)NC1=O (HELM PEPTIDE1{Y.F.V.N.C.P.[dR].G.[am]}|CHEM1{[O=C(CC1(S[*:2])CCCCC1)[*:1]]}$PEPTIDE1,CHEM1,1:R1-1:R1|PEPTIDE1,CHEM1,5:R3-1:R2$$$V2.0) [listing 2 of 2 here]		1.5 nM/kg			

— ChEMBL document CHEMBL1122193, “Design of potent and selective antagonists of the vasopressor responses to arginine-vasopressin” (J Med Chem, 1982)
